# Values quoted from earlier work as cited in paper PMC4494773, “Design, synthesis, antiviral and cytotoxic evaluation of novel acyclic phosphonate nucleotide analogues with a 5,6-dihydro-1H-[1,2,3]triazolo[4,5-d]pyridazine-4,7-dione system” (Monatshefte Fur Chemie, 2014).
# Columns and labels:
# [1] = system: HIV-1; design: method as in PMID 12901908
# [2] = system: viral helicase from West Nile Virus (WNV); design: method as in PMID 11959550
# [3] = system: viral helicase from HCV; design: method as in PMID 11959550
Structure (SMILES),antiviral activity against HIV-1 [1],antiviral activity by inhibition of a viral helicase [2],antiviral activity by inhibition of a viral helicase [3]
NC(=O)c1nnn(C2CC(CO)CC2O)c1N (stereo not drawn) [compound 1],displayed antiviral activity,–,–
NC(=O)c1cn(C2CC(CCP(=O)(O)O)CC2O)nn1 (stereo not drawn) [compound 2],displayed antiviral activity,–,–
O=c1[nH][nH]c(=O)c2c1ncn2C1OC(CO)C(O)C1O (stereo not drawn) [compound 5],–,exhibited antiviral activity by inhibition of a viral helicase,exhibited antiviral activity by inhibition of a viral helicase
COC1C(O)C(CO)OC1n1cnc2c(=O)[nH][nH]c(=O)c21 (stereo not drawn) [compound 6],–,exhibited antiviral activity by inhibition of a viral helicase,exhibited antiviral activity by inhibition of a viral helicase
